{
  "source": "ChEMBL document CHEMBL1145900",
  "about": "“Histone deacetylase inhibitors” (J Med Chem, 2003)",
  "key": {"[1]": {"biological_target": "T1, Histone deacetylase (Homo sapiens) (UniProt Q13547+O15379+Q9UBN7+Q92769+Q9UQL6+Q8WUI4+Q9BY41+Q96DB2+P56524+Q9UKV0+Q969S8)", "assay": "Percent inhibition against isolated Histone deacetylase at 30 uM", "format": "protein assay"}, "HCT-116": {"test_system": "HCT-116", "assay": "Inhibitory concentration against HCT116 cells proliferation", "format": "functional, cell-based", "conditions": "Homo sapiens"}, "Histone deacetylase [2]": {"biological_target": "Histone deacetylase", "format": "protein assay, Homo sapiens", "description": "Inhibitory concentration against histone deacetylase"}, "[3]": {"assay": "Inhibition of acetylation of histone-4 in human T-24 cancer cells"}, "MDA-MB-435": {"test_system": "MDA-MB-435", "assay": "cells", "format": "functional, cell-based", "conditions": "Homo sapiens", "description": "Inhibitory concentration against MDA-435 cells proliferation"}, "HT-1080": {"test_system": "HT-1080", "assay": "cells", "format": "functional, cell-based", "conditions": "Homo sapiens", "description": "Inhibitory concentration against HT1080 cells proliferation"}, "Histone deacetylase [4]": {"biological_target": "Histone deacetylase", "parameters": "species or system Rattus norvegicus", "description": "Inhibitory concentration against rat liver Histone deacetylase"}, "Histone deacetylase 2": {"biological_target": "Histone deacetylase 2 (Homo sapiens, UniProt Q92769)", "sequence (Q92769 whole entry)": "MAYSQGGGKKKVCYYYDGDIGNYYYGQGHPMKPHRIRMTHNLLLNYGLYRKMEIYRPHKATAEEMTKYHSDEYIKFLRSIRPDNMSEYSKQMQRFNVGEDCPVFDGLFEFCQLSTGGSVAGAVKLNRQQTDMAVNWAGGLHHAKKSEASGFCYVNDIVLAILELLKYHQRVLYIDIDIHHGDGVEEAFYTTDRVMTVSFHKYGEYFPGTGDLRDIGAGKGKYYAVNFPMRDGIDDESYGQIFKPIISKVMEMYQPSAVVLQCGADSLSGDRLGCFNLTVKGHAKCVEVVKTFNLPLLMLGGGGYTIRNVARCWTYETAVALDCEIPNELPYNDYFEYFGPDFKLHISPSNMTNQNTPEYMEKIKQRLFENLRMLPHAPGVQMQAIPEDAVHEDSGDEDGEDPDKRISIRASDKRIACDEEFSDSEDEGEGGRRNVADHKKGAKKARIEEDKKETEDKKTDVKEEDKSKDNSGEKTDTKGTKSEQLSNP", "assay": "Inhibitory concentration against human Histone deacetylase 2"}, "Histone deacetylase 4": {"biological_target": "Histone deacetylase 4 (Homo sapiens, UniProt P56524)", "sequence (P56524 whole entry)": "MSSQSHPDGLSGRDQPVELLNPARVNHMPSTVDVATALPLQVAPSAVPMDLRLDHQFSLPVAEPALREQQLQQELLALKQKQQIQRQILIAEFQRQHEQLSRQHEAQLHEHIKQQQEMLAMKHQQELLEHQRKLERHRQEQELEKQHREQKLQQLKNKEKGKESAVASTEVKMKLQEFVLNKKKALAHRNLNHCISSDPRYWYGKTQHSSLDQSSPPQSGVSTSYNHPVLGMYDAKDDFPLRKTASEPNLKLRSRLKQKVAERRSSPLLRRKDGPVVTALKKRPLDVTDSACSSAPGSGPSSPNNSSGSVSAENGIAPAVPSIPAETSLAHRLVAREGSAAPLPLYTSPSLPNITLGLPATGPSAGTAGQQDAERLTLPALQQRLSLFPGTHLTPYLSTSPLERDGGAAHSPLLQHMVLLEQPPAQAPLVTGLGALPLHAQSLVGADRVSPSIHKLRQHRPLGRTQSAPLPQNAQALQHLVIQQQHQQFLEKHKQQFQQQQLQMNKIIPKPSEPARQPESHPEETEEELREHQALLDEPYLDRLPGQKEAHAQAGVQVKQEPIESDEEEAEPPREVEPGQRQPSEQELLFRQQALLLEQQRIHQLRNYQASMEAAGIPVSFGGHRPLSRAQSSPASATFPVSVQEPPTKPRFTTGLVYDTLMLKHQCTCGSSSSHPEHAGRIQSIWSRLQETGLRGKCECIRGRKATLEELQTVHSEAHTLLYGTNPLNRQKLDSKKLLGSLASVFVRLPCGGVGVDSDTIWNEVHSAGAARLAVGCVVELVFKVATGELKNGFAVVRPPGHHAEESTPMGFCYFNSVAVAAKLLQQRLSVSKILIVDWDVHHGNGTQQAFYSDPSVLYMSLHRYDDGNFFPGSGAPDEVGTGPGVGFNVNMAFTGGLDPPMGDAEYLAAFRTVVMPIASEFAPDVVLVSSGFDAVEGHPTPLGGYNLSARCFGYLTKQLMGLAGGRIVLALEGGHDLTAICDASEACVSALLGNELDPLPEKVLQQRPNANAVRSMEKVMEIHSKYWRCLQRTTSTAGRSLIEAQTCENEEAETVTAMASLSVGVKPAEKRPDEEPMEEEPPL", "description": "Inhibitory concentration against human Histone deacetylase 4"}, "[5]": {"biological_target": "T2, Protein deacetylase HDAC6 (Homo sapiens, UniProt Q9UBN7)", "T2 sequence (Q9UBN7 whole entry)": "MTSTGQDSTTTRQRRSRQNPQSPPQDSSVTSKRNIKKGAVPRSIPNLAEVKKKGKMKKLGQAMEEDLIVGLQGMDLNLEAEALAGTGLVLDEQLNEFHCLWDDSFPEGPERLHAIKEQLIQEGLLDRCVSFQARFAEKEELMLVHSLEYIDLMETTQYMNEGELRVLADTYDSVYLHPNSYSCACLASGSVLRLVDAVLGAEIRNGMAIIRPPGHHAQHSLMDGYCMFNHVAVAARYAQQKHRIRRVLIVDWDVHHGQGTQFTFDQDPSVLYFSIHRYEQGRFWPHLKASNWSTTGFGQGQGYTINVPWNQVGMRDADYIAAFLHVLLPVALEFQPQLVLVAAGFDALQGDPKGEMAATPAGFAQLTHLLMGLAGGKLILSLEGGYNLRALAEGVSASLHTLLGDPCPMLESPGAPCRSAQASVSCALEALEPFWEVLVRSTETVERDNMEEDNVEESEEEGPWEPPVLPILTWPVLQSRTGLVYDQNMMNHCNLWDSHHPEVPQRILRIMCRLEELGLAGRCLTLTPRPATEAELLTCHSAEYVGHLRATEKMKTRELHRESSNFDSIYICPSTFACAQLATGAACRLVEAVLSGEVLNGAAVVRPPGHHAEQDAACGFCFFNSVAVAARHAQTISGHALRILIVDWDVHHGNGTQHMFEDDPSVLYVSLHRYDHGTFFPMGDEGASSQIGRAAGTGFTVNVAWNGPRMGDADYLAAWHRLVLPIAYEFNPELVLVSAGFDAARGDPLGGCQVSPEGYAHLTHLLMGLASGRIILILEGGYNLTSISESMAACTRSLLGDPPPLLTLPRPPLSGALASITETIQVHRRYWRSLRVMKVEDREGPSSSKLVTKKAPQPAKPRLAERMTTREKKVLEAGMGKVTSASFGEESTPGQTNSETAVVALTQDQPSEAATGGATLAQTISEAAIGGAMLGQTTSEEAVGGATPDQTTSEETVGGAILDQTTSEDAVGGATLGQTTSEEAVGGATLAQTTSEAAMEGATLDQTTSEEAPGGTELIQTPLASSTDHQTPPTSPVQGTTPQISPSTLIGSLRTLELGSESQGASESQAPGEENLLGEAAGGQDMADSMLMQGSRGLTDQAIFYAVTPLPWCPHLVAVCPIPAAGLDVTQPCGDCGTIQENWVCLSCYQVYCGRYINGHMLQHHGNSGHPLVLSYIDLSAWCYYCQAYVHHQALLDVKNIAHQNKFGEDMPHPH", "assay": "Inhibitory concentration against human Histone deacetylase 6"}, "[6]": {"assay": "Inhibitory concentration against mixed human Histone deacetylase 1, Histone deacetylase 2 and Histone deacetylase 3"}, "Histone deacetylase [7]": {"biological_target": "Histone deacetylase", "format": "protein assay, Homo sapiens", "remark": "listed apart in the source", "description": "Inhibitory concentration against human histone deacetylase (HDAC)"}, "[8]": {"biological_target": "T1, Histone deacetylase (Homo sapiens)", "assay": "Percent inhibition against isolated Histone deacetylase enzyme at 30 uM", "format": "protein assay"}, "[9]": {"biological_target": "T1, Histone deacetylase (Homo sapiens)", "assay": "Inhibitory concentration against human Histone deacetylase", "format": "protein assay", "conditions": "concentration not given here"}, "HT-29": {"test_system": "HT-29", "assay": "In vitro inhibitory concentration against HT-29 tumor cell proliferation", "format": "functional, cell-based", "conditions": "Homo sapiens"}, "Jurkat": {"test_system": "Jurkat", "assay": "In vitro inhibitory concentration against human Jurkat cell proliferation", "format": "functional, cell-based"}, "Histone deacetylase 1 [10]": {"biological_target": "Histone deacetylase 1 (Homo sapiens, UniProt Q13547, C151S)", "sequence (Q13547 whole entry C151S)": "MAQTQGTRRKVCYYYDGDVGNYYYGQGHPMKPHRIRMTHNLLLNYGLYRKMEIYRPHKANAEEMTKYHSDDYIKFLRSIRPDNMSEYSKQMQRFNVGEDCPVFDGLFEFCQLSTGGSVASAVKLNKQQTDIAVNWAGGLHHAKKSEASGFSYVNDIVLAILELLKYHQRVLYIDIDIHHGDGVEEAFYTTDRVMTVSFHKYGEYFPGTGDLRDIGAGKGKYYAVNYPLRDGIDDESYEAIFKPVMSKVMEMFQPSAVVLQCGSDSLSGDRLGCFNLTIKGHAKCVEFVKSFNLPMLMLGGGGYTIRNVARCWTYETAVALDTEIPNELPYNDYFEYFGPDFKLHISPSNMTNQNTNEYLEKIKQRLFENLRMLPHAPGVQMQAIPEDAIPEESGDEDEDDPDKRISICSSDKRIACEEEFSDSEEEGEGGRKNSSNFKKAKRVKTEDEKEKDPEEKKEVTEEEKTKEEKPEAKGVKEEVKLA", "assay": "Inhibitory concentration against human Histone deacetylase 1 (C151S)"}, "Histone deacetylase 1 [11]": {"biological_target": "Histone deacetylase 1 (Homo sapiens, UniProt Q13547)", "sequence (Q13547 whole entry)": "as the sequence (Q13547 whole entry C151S) above, with S151C counted along it", "assay": "Inhibitory concentration against human Histone deacetylase 1"}, "Histone deacetylase HD2": {"biological_target": "T3, Histone deacetylase HD2 (Zea mays, UniProt Q94F81)", "T3 sequence (Q94F81 whole entry)": "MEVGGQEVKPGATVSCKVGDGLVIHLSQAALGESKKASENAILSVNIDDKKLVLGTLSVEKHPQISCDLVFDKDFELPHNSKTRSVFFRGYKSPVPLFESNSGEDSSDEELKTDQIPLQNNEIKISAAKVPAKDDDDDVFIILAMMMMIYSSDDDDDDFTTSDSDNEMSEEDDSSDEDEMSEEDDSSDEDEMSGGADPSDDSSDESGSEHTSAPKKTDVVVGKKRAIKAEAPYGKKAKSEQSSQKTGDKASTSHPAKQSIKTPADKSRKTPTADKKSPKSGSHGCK", "assay": "Inhibitory concentration against maize Histone deacetylase 2"}},
  "note": "pIC50: −log10 of the molar value.",
  "data": [
    {"smiles": "Cn1cc(C(=O)c2ccccc2)cc1C=C1C(=O)NC(=S)NC1=O", "values": [
      {"measurement": "inhibition", "setting": "[1]", "value": 0, "unit": "%"}
    ]},
    {"smiles": "O=C(/C=C/c1ccc(CNCCCc2ccccc2)cc1)NO", "values": [
      {"measurement": "pIC50", "setting": "HCT-116", "value": 7.19},
      {"measurement": "IC50", "setting": "Histone deacetylase [2]", "value": 64, "unit": "nM"}
    ]},
    {"smiles": "Nc1ccccc1NC(=O)/C=C/c1ccc(S(=O)(=O)Nc2ccc(-c3ccccc3)cc2)cc1", "values": [
      {"measurement": "EC", "setting": "[3]", "value": 5, "unit": "µM"}
    ]},
    {"smiles": "CC(C)C[C@H]1C(=O)N2C(=O)[C@@H]1CCCCOc1ccc(cc1)C[C@H]2C(=O)NCCCCCC(=O)NO", "values": [
      {"measurement": "pIC50", "setting": "MDA-MB-435", "value": 6.82},
      {"measurement": "pIC50", "setting": "HT-1080", "value": 6.60},
      {"measurement": "IC50", "setting": "Histone deacetylase [4]", "value": 38, "unit": "nM"}
    ]},
    {"smiles": "C/C=C1\\NC(=O)[C@@H](CS)NC(=O)[C@@H](C(C)C)NC(=O)C[C@@H](/C=C/CCS)OC(=O)[C@H](C(C)C)NC1=O", "note": "[FR-135313]", "values": [
      {"measurement": "pIC50", "setting": "Histone deacetylase 2", "value": 8.41},
      {"measurement": "pIC50", "setting": "Histone deacetylase 4", "value": 7.60},
      {"measurement": "pIC50", "setting": "[5]", "value": 6.10}
    ]},
    {"smiles": "N#Cc1ccc(-c2ccc(OCCCCCCC(=O)NO)cc2)cc1", "values": [
      {"measurement": "pIC50", "setting": "[6]", "value": 8.05}
    ]},
    {"smiles": "C[C@H](CCCCC(=O)NO)NC(=O)c1ccc(N(C)C)cc1", "values": [
      {"measurement": "IC50", "setting": "Histone deacetylase [7]", "value": 359, "unit": "nM"}
    ]},
    {"smiles": "C[C@H](/C=C/C=C/C(=O)NO)NC(=O)c1ccc(N(C)C)cc1", "values": [
      {"measurement": "IC50", "setting": "Histone deacetylase [7]", "value": 12187, "unit": "nM"}
    ]},
    {"smiles": "Cn1cc(C(=O)Cc2ccccc2)cc1/C=C/C#N", "values": [
      {"measurement": "inhibition", "setting": "[8]", "value": 0, "unit": "%"}
    ]},
    {"smiles": "O=C(CCCCCCCOc1ccc(-c2ccccc2)cc1)C(F)(F)F", "values": [
      {"measurement": "inhibition", "setting": "[9]", "value": 72, "unit": "%"}
    ]},
    {"smiles": "CCC(=O)CCCCC[C@@H]1NC(=O)[C@H]2CCCCN2C(=O)[C@H](Cc2ccccc2)NC(=O)[C@H](Cc2ccccc2)NC1=O", "values": [
      {"measurement": "IC50", "setting": "HT-29", "value": 0.158, "unit": "µg/mL"},
      {"measurement": "IC50", "setting": "Jurkat", "value": 0.152, "unit": "µg/mL"}
    ]},
    {"smiles": "Cn1cc(C(=O)c2ccccc2)cc1C=C1C(=O)NC(=O)NC1=O", "values": [
      {"measurement": "inhibition", "setting": "[1]", "value": 0, "unit": "%"}
    ]},
    {"smiles": "O=C(CCCCCCN1c2cccc3cccc(c23)S1(=O)=O)NO", "values": [
      {"measurement": "IC50", "setting": "Histone deacetylase [7]", "value": 10, "unit": "nM"}
    ]},
    {"smiles": "C/C=C1\\NC(=O)[C@@H](CSC)NC(=O)[C@@H](C(C)C)CC(=O)C[C@@H](/C=C/CCSC)OC(=O)[C@H](C(C)C)NC1=O", "values": [
      {"measurement": "pIC50", "setting": "Histone deacetylase 2", "value": 5.48},
      {"measurement": "pIC50", "setting": "Histone deacetylase 1 [10]", "value": "< 4.00"},
      {"measurement": "pIC50", "setting": "Histone deacetylase 1 [11]", "value": 5.20},
      {"measurement": "pIC50", "setting": "Histone deacetylase 4", "value": 3.96},
      {"measurement": "pIC50", "setting": "[5]", "value": "< 4.00"}
    ]},
    {"smiles": "CN(C)c1ccc(C(=O)Nc2ccc(CC(=O)NO)cc2)cc1", "values": [
      {"measurement": "pIC50", "setting": "Histone deacetylase HD2", "value": "< 4.40"}
    ]},
    {"smiles": "Nc1ccccc1NC(=O)/C=C/c1ccc(NS(=O)(=O)c2ccc(-c3ccccc3)cc2)cc1", "values": [
      {"measurement": "EC", "setting": "[3]", "value": 15, "unit": "µM"}
    ]},
    {"smiles": "C/C=C1\\NC(=O)[C@H]2CSSCC/C=C/[C@H](CC(=O)N[C@H](C(C)C)C(=O)N2)OC(=O)[C@H](C(C)C)NC1=O", "note": "[ROMIDEPSIN]", "values": [
      {"measurement": "pIC50", "setting": "Histone deacetylase 1 [10]", "value": 6.55}
    ]}
  ]
}
